Experiment [1] has as its target T1, Muscarinic acetylcholine receptor M1 (Homo sapiens, UniProt P11229).
T1 sequence (P11229 whole entry): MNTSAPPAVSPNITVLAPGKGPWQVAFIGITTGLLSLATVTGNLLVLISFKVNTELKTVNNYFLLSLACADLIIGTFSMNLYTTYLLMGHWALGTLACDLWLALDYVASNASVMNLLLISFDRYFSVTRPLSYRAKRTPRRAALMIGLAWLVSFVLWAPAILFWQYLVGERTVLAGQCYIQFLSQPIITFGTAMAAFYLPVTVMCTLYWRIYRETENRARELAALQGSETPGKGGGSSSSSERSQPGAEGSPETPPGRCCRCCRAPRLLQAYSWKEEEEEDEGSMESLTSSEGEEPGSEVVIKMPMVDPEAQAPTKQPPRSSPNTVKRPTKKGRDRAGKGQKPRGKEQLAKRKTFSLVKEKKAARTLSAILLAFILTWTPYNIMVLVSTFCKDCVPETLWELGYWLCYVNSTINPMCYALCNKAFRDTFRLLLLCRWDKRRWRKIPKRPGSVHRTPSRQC
It is filed as functional, cell-based.

Experiment [2] concerns the target 3',5'-cyclic-AMP phosphodiesterase 4A (Homo sapiens, UniProt P27815). In kind it is functional.
Experiment [3] addresses Sodium-dependent noradrenaline transporter (Homo sapiens, UniProt P23975).
In a further experiment the target is T2, Progesterone receptor (Homo sapiens, UniProt P06401).
T2 sequence (P06401 whole entry): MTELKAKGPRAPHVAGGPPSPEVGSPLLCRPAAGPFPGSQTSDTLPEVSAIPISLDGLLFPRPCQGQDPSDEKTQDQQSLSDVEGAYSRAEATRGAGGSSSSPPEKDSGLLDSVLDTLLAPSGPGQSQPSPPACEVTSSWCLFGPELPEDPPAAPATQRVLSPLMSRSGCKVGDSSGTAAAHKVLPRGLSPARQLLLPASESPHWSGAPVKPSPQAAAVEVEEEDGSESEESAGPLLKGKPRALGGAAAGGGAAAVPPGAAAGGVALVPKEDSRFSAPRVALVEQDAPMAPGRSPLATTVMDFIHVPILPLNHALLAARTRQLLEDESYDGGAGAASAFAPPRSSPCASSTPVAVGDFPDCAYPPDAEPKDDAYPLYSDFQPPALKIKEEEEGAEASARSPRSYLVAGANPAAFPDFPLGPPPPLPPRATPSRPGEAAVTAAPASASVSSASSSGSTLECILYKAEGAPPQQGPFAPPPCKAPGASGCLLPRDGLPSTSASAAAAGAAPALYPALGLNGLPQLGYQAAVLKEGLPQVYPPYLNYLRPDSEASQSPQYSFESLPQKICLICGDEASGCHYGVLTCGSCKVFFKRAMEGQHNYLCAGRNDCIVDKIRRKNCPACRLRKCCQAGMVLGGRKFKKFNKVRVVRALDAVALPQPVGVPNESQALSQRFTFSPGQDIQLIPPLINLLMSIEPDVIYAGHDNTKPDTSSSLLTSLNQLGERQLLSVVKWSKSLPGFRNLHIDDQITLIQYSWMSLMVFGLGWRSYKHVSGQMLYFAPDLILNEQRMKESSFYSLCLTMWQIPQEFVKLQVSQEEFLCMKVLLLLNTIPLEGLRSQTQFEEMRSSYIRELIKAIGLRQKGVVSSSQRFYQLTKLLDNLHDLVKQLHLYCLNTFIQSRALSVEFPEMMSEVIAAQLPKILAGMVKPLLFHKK

Experiment [4] has as its target T3, D(1A) dopamine receptor (Homo sapiens, UniProt P21728).
The target in a further experiment is Melanocortin receptor 4 (Homo sapiens, UniProt P32245).
In experiment [5] the target is T4, Alpha-1A adrenergic receptor (Homo sapiens, UniProt P35348).
T4 sequence (P35348 whole entry): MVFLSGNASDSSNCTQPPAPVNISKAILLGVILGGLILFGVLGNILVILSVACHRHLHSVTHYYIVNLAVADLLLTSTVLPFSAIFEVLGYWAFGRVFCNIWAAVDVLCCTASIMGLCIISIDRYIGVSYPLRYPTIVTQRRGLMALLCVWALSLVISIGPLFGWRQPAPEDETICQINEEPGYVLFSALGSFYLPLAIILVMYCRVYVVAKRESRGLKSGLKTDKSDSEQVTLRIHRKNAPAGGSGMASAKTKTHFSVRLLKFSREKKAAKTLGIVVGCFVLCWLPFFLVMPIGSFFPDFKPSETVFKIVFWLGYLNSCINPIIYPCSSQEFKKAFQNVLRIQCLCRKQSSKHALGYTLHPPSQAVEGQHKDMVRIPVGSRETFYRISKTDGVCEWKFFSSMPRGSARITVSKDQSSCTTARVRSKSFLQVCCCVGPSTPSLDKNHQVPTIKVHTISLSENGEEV

The target of another experiment is Vasopressin V1a receptor (Homo sapiens, UniProt P37288).
Experiment [6] has as its target T3, D(1A) dopamine receptor. It is filed as functional, cell-based.
For experiment [7], the target named is Gamma-aminobutyric acid receptor subunit alpha-1 (Rattus norvegicus, UniProt P62813). In kind it is functional.
For experiment [8], the target named is T5, Alpha-2B adrenergic receptor (Homo sapiens, UniProt P18089).
T5 sequence (P18089 whole entry): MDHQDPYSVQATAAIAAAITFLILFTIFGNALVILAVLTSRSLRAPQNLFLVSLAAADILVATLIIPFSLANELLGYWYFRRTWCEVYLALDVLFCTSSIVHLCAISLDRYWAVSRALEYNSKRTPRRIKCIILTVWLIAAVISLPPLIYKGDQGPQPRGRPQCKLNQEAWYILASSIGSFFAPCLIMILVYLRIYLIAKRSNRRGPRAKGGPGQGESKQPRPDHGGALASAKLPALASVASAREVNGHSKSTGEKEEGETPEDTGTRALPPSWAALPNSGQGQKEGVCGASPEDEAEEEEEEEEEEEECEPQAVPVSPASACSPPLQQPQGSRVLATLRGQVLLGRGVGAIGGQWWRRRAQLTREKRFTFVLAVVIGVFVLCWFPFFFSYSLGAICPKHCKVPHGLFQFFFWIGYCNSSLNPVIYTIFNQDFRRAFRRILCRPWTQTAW
Also: assay procedure not described here.

Melanocortin receptor 4, sequence (P32245 whole entry): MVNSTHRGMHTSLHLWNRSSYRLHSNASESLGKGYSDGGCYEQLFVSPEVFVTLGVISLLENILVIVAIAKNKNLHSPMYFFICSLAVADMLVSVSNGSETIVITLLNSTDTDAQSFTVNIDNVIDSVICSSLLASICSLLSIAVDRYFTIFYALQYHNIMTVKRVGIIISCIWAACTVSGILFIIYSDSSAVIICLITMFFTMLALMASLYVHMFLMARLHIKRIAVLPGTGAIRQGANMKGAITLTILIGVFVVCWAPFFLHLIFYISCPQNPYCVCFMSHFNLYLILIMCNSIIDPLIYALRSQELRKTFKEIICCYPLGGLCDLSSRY
Sodium-dependent noradrenaline transporter, sequence (P23975 whole entry): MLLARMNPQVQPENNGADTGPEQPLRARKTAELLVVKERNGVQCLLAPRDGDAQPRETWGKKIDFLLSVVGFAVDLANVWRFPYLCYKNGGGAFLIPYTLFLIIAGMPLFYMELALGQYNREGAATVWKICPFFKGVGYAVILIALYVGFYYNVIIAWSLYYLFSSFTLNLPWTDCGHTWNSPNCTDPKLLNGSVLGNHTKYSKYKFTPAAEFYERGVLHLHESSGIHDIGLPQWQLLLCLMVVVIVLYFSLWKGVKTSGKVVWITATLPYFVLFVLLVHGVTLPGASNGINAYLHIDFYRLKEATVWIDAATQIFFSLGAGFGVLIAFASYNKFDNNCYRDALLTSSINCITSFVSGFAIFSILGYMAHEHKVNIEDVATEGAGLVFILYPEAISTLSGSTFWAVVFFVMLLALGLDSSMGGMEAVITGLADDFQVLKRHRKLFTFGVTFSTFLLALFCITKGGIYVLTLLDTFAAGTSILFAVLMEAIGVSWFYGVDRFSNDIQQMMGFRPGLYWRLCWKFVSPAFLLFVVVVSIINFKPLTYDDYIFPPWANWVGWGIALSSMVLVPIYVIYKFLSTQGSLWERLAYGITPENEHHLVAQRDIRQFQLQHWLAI
Vasopressin V1a receptor, sequence (P37288 whole entry): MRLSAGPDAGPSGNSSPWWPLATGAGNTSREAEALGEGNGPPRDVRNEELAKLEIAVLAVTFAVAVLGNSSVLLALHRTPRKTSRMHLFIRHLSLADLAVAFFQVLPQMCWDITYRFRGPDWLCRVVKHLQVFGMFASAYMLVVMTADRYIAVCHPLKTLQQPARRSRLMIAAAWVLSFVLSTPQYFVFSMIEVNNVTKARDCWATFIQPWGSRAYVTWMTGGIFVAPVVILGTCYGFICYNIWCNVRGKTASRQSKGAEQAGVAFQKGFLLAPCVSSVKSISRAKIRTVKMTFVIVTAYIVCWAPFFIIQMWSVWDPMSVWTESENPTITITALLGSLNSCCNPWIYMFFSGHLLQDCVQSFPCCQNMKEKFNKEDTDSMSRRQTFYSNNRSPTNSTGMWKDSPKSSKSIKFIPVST
3',5'-cyclic-AMP phosphodiesterase 4A, sequence (P27815 whole entry): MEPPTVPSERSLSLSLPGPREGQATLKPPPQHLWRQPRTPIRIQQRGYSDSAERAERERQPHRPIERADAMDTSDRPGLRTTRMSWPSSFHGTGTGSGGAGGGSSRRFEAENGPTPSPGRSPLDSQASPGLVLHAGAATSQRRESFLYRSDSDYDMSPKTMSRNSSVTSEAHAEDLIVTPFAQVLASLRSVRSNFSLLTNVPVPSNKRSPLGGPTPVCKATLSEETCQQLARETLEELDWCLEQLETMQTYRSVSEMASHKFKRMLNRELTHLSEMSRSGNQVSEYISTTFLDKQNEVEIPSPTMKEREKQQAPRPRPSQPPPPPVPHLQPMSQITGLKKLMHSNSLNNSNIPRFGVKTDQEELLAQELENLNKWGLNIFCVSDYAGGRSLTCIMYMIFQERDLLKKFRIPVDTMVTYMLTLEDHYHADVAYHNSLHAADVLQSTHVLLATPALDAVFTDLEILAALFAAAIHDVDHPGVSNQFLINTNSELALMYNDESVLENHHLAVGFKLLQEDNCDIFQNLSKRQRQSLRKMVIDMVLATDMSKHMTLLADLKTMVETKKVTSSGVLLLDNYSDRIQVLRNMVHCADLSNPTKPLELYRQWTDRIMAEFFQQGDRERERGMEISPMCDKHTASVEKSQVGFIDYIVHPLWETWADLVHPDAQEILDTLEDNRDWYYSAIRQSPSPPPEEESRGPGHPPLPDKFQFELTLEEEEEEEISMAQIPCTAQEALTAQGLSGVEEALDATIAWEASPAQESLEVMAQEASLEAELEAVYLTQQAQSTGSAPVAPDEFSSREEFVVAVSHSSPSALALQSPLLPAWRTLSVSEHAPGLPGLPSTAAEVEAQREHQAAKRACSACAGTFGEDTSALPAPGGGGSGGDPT
T3 sequence (P21728 whole entry): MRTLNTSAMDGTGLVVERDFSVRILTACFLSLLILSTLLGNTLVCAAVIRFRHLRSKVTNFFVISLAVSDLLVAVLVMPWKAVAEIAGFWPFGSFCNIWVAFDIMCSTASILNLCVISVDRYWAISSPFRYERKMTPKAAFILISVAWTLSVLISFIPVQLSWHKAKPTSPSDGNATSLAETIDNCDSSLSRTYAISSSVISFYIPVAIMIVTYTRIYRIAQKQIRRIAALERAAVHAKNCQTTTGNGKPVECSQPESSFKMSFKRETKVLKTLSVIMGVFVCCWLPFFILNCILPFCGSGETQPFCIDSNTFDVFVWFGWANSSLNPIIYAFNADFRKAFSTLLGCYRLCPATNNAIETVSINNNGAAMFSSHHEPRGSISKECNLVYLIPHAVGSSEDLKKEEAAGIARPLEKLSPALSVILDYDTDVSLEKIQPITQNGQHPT
Gamma-aminobutyric acid receptor subunit alpha-1, sequence (P62813 whole entry): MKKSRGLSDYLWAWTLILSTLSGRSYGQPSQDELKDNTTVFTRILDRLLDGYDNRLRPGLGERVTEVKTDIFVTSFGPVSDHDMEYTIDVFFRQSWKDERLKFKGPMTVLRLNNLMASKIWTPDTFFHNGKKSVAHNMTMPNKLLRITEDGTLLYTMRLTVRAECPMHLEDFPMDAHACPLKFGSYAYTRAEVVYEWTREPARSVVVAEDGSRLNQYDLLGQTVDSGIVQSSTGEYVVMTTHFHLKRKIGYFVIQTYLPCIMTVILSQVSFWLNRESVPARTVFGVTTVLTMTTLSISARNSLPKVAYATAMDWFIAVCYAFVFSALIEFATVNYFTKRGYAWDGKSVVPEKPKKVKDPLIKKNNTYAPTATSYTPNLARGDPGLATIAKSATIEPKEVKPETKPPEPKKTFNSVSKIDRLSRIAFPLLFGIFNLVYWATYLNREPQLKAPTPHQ

The term AC50 denotes the midpoint of the concentration-response curve, whichever way the signal moves. Read a high AC50 as activity only at high concentration. On to `CC(C)N(CCNC(=O)CN1CCCC1=O)C(C)C`, for which the concentration at half-maximal activity (AC50) (in [1]; in experiment [2]; in [3]; at Progesterone receptor; at D(1A) dopamine receptor [4]) was over 30 µM in each case.

`Cc1cc(N)c2ccccc2[n+]1CCCCCCCCCC[n+]1c(C)cc(N)c2ccccc21`: the concentration at half-maximal activity (AC50) in [1] was found to be 0.611 µM; in experiment [2], 3.16 µM; in experiment [3] it was 1.47 µM; on Progesterone receptor, 16 µM; at D(1A) dopamine receptor [4], 1.04 µM.

Consider `CCOC(=O)[C@H](CCc1ccccc1)N[C@@H](C)C(=O)N(CC(=O)O)C1Cc2ccccc2C1`, for which the AC50 (in [1]; in experiment [2]; in experiment [3]; on Progesterone receptor; on D(1A) dopamine receptor [4]) was over 30 µM in each case.

Take `C=CCSCC1Nc2cc(Cl)c(S(N)(=O)=O)cc2S(=O)(=O)N1` (stereo not drawn) [ALTHIAZIDE]: the half-maximal activity concentration (AC50) (in experiment [1]; in experiment [2]; in experiment [3]; at Progesterone receptor; at D(1A) dopamine receptor [4]) was over 30 µM throughout.

`CCN(CCCc1ccccc1)CCCc1ccccc1` [ALVERINE]: the half-maximal activity concentration (AC50) is 0.198 µM in [1]; over 30 µM in [2]; 1.15 µM in [3]; over 30 µM at Progesterone receptor; 3.72 µM at D(1A) dopamine receptor [4].

On to `COc1cc(N2CCC(N3CCN(C)CC3)CC2)ccc1Nc1ncc(Cl)c(Nc2ccccc2P(C)(C)=O)n1` [BRIGATINIB], for which the AC50 (in [1]; in [2]; in [3]; on Progesterone receptor; at D(1A) dopamine receptor [4]) was over 30 µM each time.

With `CN(C)CCOC(c1ccccc1)c1ccc(Br)cc1` (stereo not drawn) [BROMODIPHENHYDRAMINE], the AC50 in [1] was 1.49 µM; in [2] it was over 30 µM; in experiment [3], 4.22 µM; on Progesterone receptor, over 30 µM; at D(1A) dopamine receptor [4] it was 2.95 µM.

Turning to `NC(=O)OCC(O)COc1ccc(Cl)cc1` (stereo not drawn) [CHLORPHENESIN CARBAMATE], the half-maximal activity concentration (AC50) (in [1]; in experiment [2]; in [3]; at Progesterone receptor; on D(1A) dopamine receptor [4]) was over 30 µM each time.

For `CCN(CC)C(=S)S` [DITIOCARB], the AC50 in experiment [1] was over 1 µM; in experiment [2], over 30 µM; in experiment [3] it was over 30 µM; on Progesterone receptor it was over 30 µM; at D(1A) dopamine receptor [4], over 30 µM.

As for `Cc1cnc(C(=O)NCCc2ccc(S(=O)(=O)NC(=O)NC3CCCCC3)cc2)cn1` [GLIPIZIDE], the half-maximal activity concentration (AC50) was over 30 µM on Melanocortin receptor 4; over 10 µM in [5]; over 30 µM in experiment [2]; over 10 µM at Vasopressin V1a receptor; over 30 µM on Progesterone receptor.

Consider `CCC(=O)O[C@]1(C(=O)CCl)[C@@H](C)C[C@H]2[C@@H]3C[C@H](F)C4=CC(=O)C=C[C@]4(C)[C@@]3(F)[C@@H](O)C[C@@]21C` [HALOBETASOL PROPIONATE], for which the AC50 in experiment [1] is 14.9 µM; in [2], over 30 µM; in experiment [3], over 30 µM; on Progesterone receptor, 0.003 µM; at D(1A) dopamine receptor [4], over 30 µM.

On to `CC(N)Cc1ccc(O)cc1` (stereo not drawn) [HYDROXYAMPHETAMINE], for which the half-maximal activity concentration (AC50) in experiment [1] is over 30 µM; in experiment [2], over 30 µM; in [3], 9.66 µM; on Progesterone receptor it was over 30 µM; on D(1A) dopamine receptor [4], over 30 µM.

With `Cc1cc(NC(=O)C2=C(O)c3ccccc3S(=O)(=O)N2C)no1` [ISOXICAM], the AC50 (in experiment [1]; in experiment [2]; in experiment [3]; at Progesterone receptor; at D(1A) dopamine receptor [4]) was over 30 µM each time.

Consider `COc1cc2c(cc1OC)CC(=O)N(CCCN(C)C[C@H]1Cc3cc(OC)c(OC)cc31)CC2` [IVABRADINE], for which the half-maximal activity concentration (AC50) (in experiment [1]; in experiment [2]; in experiment [3]; at Progesterone receptor; on D(1A) dopamine receptor [4]) was over 30 µM in each case.

On to `CN1C(=O)/C(=N\NC(N)=S)c2ccccc21` [METHISAZONE], for which the concentration at half-maximal activity (AC50) in [1] is over 3 µM; in experiment [2] it was over 30 µM; in [3] it was over 30 µM; at Progesterone receptor it was over 30 µM; on D(1A) dopamine receptor [4], over 30 µM.

As to `CCCc1nc(C(C)(C)O)c(C(=O)O)n1Cc1ccc(-c2ccccc2-c2nnn[nH]2)cc1` [OLMESARTAN], the AC50 (in experiment [1]; in experiment [2]; in experiment [3]; at Progesterone receptor; on D(1A) dopamine receptor [4]) was over 30 µM throughout.

Take `NCC(CC(=O)O)c1ccccc1` (stereo not drawn) [PHENIBUT]: the half-maximal activity concentration (AC50) (in experiment [1]; in [2]; in experiment [3]; at Progesterone receptor; at D(1A) dopamine receptor [4]) was over 30 µM each time.

Take `Cc1ncc(COP(=O)(O)O)c(C=O)c1O` [PYRIDOXAL PHOSPHATE ANHYDROUS]: the AC50 in experiment [1] was over 30 µM; in experiment [2], 19.5 µM; in experiment [3], over 30 µM; on Progesterone receptor it was over 30 µM; on D(1A) dopamine receptor [4], over 30 µM.

Regarding `CCC(=O)O[C@H]1CC[C@H]2[C@@H]3CCC4=CC(=O)CC[C@]4(C)[C@H]3CC[C@]12C` [TESTOSTERONE PROPIONATE], the concentration at half-maximal activity (AC50) on Melanocortin receptor 4 is over 10 µM; in experiment [5], over 10 µM; at D(1A) dopamine receptor [6], over 10 µM; at Vasopressin V1a receptor, over 10 µM; in experiment [7] it was over 30 µM; in experiment [8] it was over 10 µM.

For the compound `Clc1ccc(C(Cn2ccnc2)OCc2ccsc2Cl)c(Cl)c1` (stereo not drawn) [TIOCONAZOLE], the AC50 was over 30 µM at Melanocortin receptor 4; 13.5 µM in experiment [5]; over 30 µM on D(1A) dopamine receptor [6]; over 30 µM on Vasopressin V1a receptor; over 30 µM in [7]; over 30 µM in experiment [8].

In the case of `CC(C)[C@H](N)C(=O)OCC(CO)OCn1cnc2c(=O)nc(N)[nH]c21` (stereo partly drawn) [VALGANCICLOVIR], the half-maximal activity concentration (AC50) (at Melanocortin receptor 4; in [5]; at D(1A) dopamine receptor [6]; on Vasopressin V1a receptor; in experiment [7]; in [8]) was over 30 µM each time.

(Values after ChEMBL document CHEMBL5291721, “A preclinical secondary pharmacology resource illuminates target-adverse drug reaction associations of marketed drugs” (Nat Commun, 2023).)
